Values of other authors as cited in patent publication US11534458B2, “Phosphorus-sparing nutritional composition” (Albion Laboratories, Inc., priority 2013, dated 2022).
Like-named read-outs stand apart in the source and are kept apart here.

Legend:
[1] = phytate-rich diet
healthy young women = details: for iron absorption increased by a factor of: phytase 10 mg (190 FTU), maize porridge meal

## O=C1O[C@H]([C@@H](O)CO)C(O)=C1O [ascorbic acid, reference compound]
[1]
  iron absorption: markedly improved
Healthy young women; ascorbic acid alone, iron from NaFeEDTA
  effect on iron absorption: little effect

## [Ca+2] [calcium]
For each 500 mg (12.5 mmol) supplemental calcium ingested
  decrease of phosphorus absorption: 5.4 mmol
For every 500 mg elemental calcium equivalent ingested
  decrease of phosphorus absorption: 166 mg

B1: Recombinant A. niger phytase: recombinant Aspergillus niger phytase (microbial 3-phytase enzyme) of literature studies (protein, UniProt P34752 24-467, looked up)
Phytase A: ASRNQSSCDTVDQGYQCFSETSHLWGQYAPFFSLANESVISPEVPAGCRVTFAQVLSRHGARYPTDSKGKKYSALIEEIQQNATTFDGKYAFLKTYNYSLGADDLTPFGEQELVNSGIKFYQRYESLTRNIVPFIRSSGSSRVIASGKKFIEGFQSTKLKDPRAQPGQSSPKIDVVISEASSSNNTLDPGTCTVFEDSELADTVEANFTATFVPSIRQRLENDLSGVTLTDTEVTYLMDMCSFDTISTSTVDTKLSPFCDLFTHDEWINYDYLQSLKKYYGHGAGNPLGPTQGVGYANELIARLTHSPVHDDTSSNHTLDSSPATFPLNSTLYADFSHDNGIISILFALGLYNGTKPLSTTTVENITQTDGFSSAWTVPFASRLYVEMMQCQAEQEPLVRVLVNDRVVPLHGCPVDALGRCTRDSFVRGLSFARSGGDWAECFA
Healthy young women; iron given as FeSO4
  iron absorption increased by a factor of: 1.71
Healthy young women; iron given as NaFeEDTA
  iron absorption increased by a factor of: 1.23
